{"source": "patent EP1433789A1", "about": "“Pyrrolopyrazines and their use as selective apoptosis inducers” (Aponetics AG, priority 2002, dated 2004)", "key": {"HBL 100": {"test_system": "HBL 100", "experiment": "Hoechst 33342 nuclear staining (Table 3)", "format": "cell-based, human", "design": "key: 0 relating to no activity; 1 relating to weak activity comprising less than 50% of the cells; score 2 relating to strong activity comprising more than 50% of the cells", "in_short": "(§1)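 Adherent cells (3-5×10^3, pre-spread 24 h) or suspension cells (8-10×10^3) treated with compounds at 10, 3, 1 and 0.3 µM for 24 or 48 h, then Hoechst 33342 stained for 30 min. Apoptotic nuclear morphology scored by fluorescence microscopy: 0 none, 1 weak (<50% cells), 2 strong (>50% cells).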"}, "HT 1080": {"test_system": "HT 1080", "experiment": "Hoechst 33342 nuclear staining (Table 3)", "format": "cell-based, human", "design": "key: 0 relating to no activity; 1 relating to weak activity comprising less than 50% of the cells; score 2 relating to strong activity comprising more than 50% of the cells", "in_short": "as §1"}, "Ramos [1]": {"test_system": "Ramos", "experiment": "Hoechst 33342 nuclear staining (Table 3)", "format": "cell-based, human", "design": "key: 0 relating to no activity; 1 relating to weak activity comprising less than 50% of the cells; score 2 relating to strong activity comprising more than 50% of the cells", "in_short": "as §1"}, "HeLa [2]": {"test_system": "HeLa", "experiment": "AnnexinV/7-AAD staining", "format": "cell-based, human", "details": "10 µM, 24 h treatment", "in_short": "(§2)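 Cells treated with compound at 10 µM final for 24 h, then stained with AnnexinV-GST/anti-GST Alexa 488 and 7-AAD and analysed by flow cytometry. Percent positive cells scored as 0 (<10%), 1 (10–50%) or 2 (>50%).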"}, "Jurkat [3]": {"test_system": "Jurkat", "experiment": "AnnexinV/7-AAD staining", "format": "cell-based, human", "details": "10 µM, 24 h treatment", "in_short": "as §2"}, "Ramos [4]": {"test_system": "Ramos", "experiment": "AnnexinV/7-AAD staining", "format": "cell-based, human", "details": "10 µM, 24 h treatment", "in_short": "as §2"}, "A20": {"test_system": "A20", "experiment": "AnnexinV/7-AAD staining", "format": "cell-based, mouse", "details": "A20, 10 µM, 24 h treatment", "in_short": "as §2"}, "HeLa [5]": {"test_system": "HeLa", "experiment": "PI staining for cell cycle distribution", "format": "cell-based, human", "design": "key: 0 indicates no occurrence at all; 1 for weak; 2 for strong occurrence", "details": "HeLa 10 µM, 24 h", "description": "(§3) 1 - 2*10^5 cells are seeded into 24 well tissue culture plates and incubated for 24 h prior to compound addition. Compounds are added for 24 h in a final concentration of 3 µM or 10 µM. Adherent cells are harvested by trypsinization. The cell suspensions are fixed by adding 2 parts ice cold ethanol 100% while vortexing. Then the samples are stored for > 2 h at-20°C. Subsequently the cells are washed with PBS once and resuspended in 250 µl PBS containing 50 µg/ml PI (Calbiochem # 537059), then the samples are incubated at 37°C for 30 minutes and subsequently analyzed on a FACSCalibur™ monitoring linear PI fluorescence activity on FL2.. The readout allows the detection of a possible direct or indirect influence of the tested compounds on the cell cycle. The following events can occur: a) Generation of a subG1 peak indicative for DNA fragmentation, b) increase of the cell population arrested in G2M phase. Both events are scored by 1 for weak and 2 for strong occurrence. 0 indicates no occurrence at all. […]"}, "Jurkat [6]": {"test_system": "Jurkat", "experiment": "PI staining for cell cycle distribution", "format": "cell-based, human", "design": "key: 0 indicates no occurrence at all; 1 for weak; 2 for strong occurrence", "details": "Jurkat 3 uM, 24 h", "description": "as §3"}}, "data": [{"smiles": "COc1cc2c(cc1OC)-c1c(Br)c3nc4ccccc4nc3n1C(C)C2", "note": "(centres unmarked) [compound 10]", "values": [{"measurement": "Hoechst 33342 nuclear staining (fraction of apoptotic nuclei), score", "setting": "HBL 100; HBL 100, 24h, 0.3 µM", "value": "1 (1 relating to weak activity comprising less than 50% of the cells)"}, {"measurement": "Hoechst 33342 nuclear staining (fraction of apoptotic nuclei), score", "setting": "HBL 100; HBL 100, 24h, 1 µM", "value": "2 (score 2 relating to strong activity comprising more than 50% of the cells)"}, {"measurement": "Hoechst 33342 nuclear staining (fraction of apoptotic nuclei), score", "setting": "HBL 100; HBL 100, 24h, 3 µM", "value": "2 (score 2 relating to strong activity comprising more than 50% of the cells)"}, {"measurement": "Hoechst 33342 nuclear staining (fraction of apoptotic nuclei), score", "setting": "HBL 100; HBL 100, 24h, 10 µM", "value": "2 (score 2 relating to strong activity comprising more than 50% of the cells)"}, {"measurement": "Hoechst 33342 nuclear staining (fraction of apoptotic nuclei), score", "setting": "HBL 100; HBL 100, 48h, 0.3 µM", "value": "2 (score 2 relating to strong activity comprising more than 50% of the cells)"}, {"measurement": "Hoechst 33342 nuclear staining (fraction of apoptotic nuclei), score", "setting": "HBL 100; HBL 100, 48h, 1 µM", "value": "2 (score 2 relating to strong activity comprising more than 50% of the cells)"}, {"measurement": "Hoechst 33342 nuclear staining (fraction of apoptotic nuclei), score", "setting": "HBL 100; HBL 100, 48h, 3 µM", "value": "2 (score 2 relating to strong activity comprising more than 50% of the cells)"}, {"measurement": "Hoechst 33342 nuclear staining (fraction of apoptotic nuclei), score", "setting": "HBL 100; HBL 100, 48h, 10 µM", "value": "2 (score 2 relating to strong activity comprising more than 50% of the cells)"}, {"measurement": "Hoechst 33342 nuclear staining (fraction of apoptotic nuclei), score", "setting": "HT 1080; HT 1080, 24h, 0.3 µM", "value": 0}, {"measurement": "Hoechst 33342 nuclear staining (fraction of apoptotic nuclei), score", "setting": "HT 1080; HT 1080, 24h, 1 µM", "value": "1 (1 relating to weak activity comprising less than 50% of the cells)"}, {"measurement": "Hoechst 33342 nuclear staining (fraction of apoptotic nuclei), score", "setting": "HT 1080; HT 1080, 24h, 3 µM", "value": "2 (score 2 relating to strong activity comprising more than 50% of the cells)"}, {"measurement": "Hoechst 33342 nuclear staining (fraction of apoptotic nuclei), score", "setting": "HT 1080; HT 1080, 24h, 10 µM", "value": "2 (score 2 relating to strong activity comprising more than 50% of the cells)"}, {"measurement": "Hoechst 33342 nuclear staining (fraction of apoptotic nuclei), score", "setting": "HT 1080; HT 1080, 48h, 0.3 µM", "value": 0}, {"measurement": "Hoechst 33342 nuclear staining (fraction of apoptotic nuclei), score", "setting": "HT 1080; HT 1080, 48h, 1 µM", "value": "2 (score 2 relating to strong activity comprising more than 50% of the cells)"}, {"measurement": "Hoechst 33342 nuclear staining (fraction of apoptotic nuclei), score", "setting": "HT 1080; HT 1080, 48h, 3 µM", "value": "2 (score 2 relating to strong activity comprising more than 50% of the cells)"}, {"measurement": "Hoechst 33342 nuclear staining (fraction of apoptotic nuclei), score", "setting": "HT 1080; HT 1080, 48h, 10 µM", "value": "2 (score 2 relating to strong activity comprising more than 50% of the cells)"}, {"measurement": "Hoechst 33342 nuclear staining", "setting": "Ramos [1]; 24h, conc 0.3 (µM)", "value": 0}, {"measurement": "Hoechst 33342 nuclear staining", "setting": "Ramos [1]; 24h, conc 1 (µM)", "value": 0}, {"measurement": "Hoechst 33342 nuclear staining", "setting": "Ramos [1]; 24h, conc 3 (µM)", "value": 0}, {"measurement": "Hoechst 33342 nuclear staining", "setting": "Ramos [1]; 24h, conc 10 (µM)", "value": "2 (score 2 relating to strong activity comprising more than 50% of the cells)"}, {"measurement": "Hoechst 33342 nuclear staining", "setting": "Ramos [1]; 48h, conc 0.3 (µM)", "value": 0}, {"measurement": "Hoechst 33342 nuclear staining", "setting": "Ramos [1]; 48h, conc 1 (µM)", "value": "2 (score 2 relating to strong activity comprising more than 50% of the cells)"}, {"measurement": "Hoechst 33342 nuclear staining", "setting": "Ramos [1]; 48h, conc 3 (µM)", "value": "2 (score 2 relating to strong activity comprising more than 50% of the cells)"}, {"measurement": "Hoechst 33342 nuclear staining", "setting": "Ramos [1]; 48h, conc 10 (µM)", "value": "2 (score 2 relating to strong activity comprising more than 50% of the cells)"}, {"measurement": "percentage of positively stained cells (AnnexinV/7-AAD staining)", "setting": "HeLa [2]", "value": "2 (score 2 relates to more than 50% positivity)"}, {"measurement": "percentage of positively stained cells (AnnexinV/7-AAD staining)", "setting": "Jurkat [3]", "value": "2 (score 2 relates to more than 50% positivity)"}, {"measurement": "percentage of positively stained cells (AnnexinV/7-AAD staining)", "setting": "Ramos [4]", "value": "2 (score 2 relates to more than 50% positivity)"}, {"measurement": "percentage of positively stained cells (AnnexinV/7-AAD staining)", "setting": "A20", "value": "1 (score 1 relates to more than 10% but less than 50%)"}, {"measurement": "G2M (increase of the cell population arrested in G2M phase)", "setting": "HeLa [5]", "value": 0}, {"measurement": "subG1 (generation of a subG1 peak indicative for DNA fragmentation)", "setting": "HeLa [5]", "value": 0}, {"measurement": "G2M (increase of the cell population arrested in G2M phase)", "setting": "Jurkat [6]", "value": 0}, {"measurement": "subG1 (generation of a subG1 peak indicative for DNA fragmentation)", "setting": "Jurkat [6]", "value": 0}]}, {"smiles": "CC1Cc2ccccc2-c2c(Cl)c3nc4ccccc4nc3n21", "note": "(centres unmarked) [compound 11]", "values": [{"measurement": "percentage of positively stained cells (AnnexinV/7-AAD staining)", "setting": "HeLa [2]", "value": "1 (score 1 relates to more than 10% but less than 50%)"}, {"measurement": "percentage of positively stained cells (AnnexinV/7-AAD staining)", "setting": "Jurkat [3]", "value": "0 (Score 0 relates to less than 10%)"}, {"measurement": "percentage of positively stained cells (AnnexinV/7-AAD staining)", "setting": "Ramos [4]", "value": "2 (score 2 relates to more than 50% positivity)"}, {"measurement": "percentage of positively stained cells (AnnexinV/7-AAD staining)", "setting": "A20", "value": "1 (score 1 relates to more than 10% but less than 50%)"}, {"measurement": "G2M (increase of the cell population arrested in G2M phase)", "setting": "HeLa [5]", "value": 0}, {"measurement": "subG1 (generation of a subG1 peak indicative for DNA fragmentation)", "setting": "HeLa [5]", "value": 0}, {"measurement": "G2M (increase of the cell population arrested in G2M phase)", "setting": "Jurkat [6]", "value": 0}, {"measurement": "subG1 (generation of a subG1 peak indicative for DNA fragmentation)", "setting": "Jurkat [6]", "value": 0}]}, {"smiles": "COc1cc2c(cc1OC)-c1c(Cl)c3nc4ccccc4nc3n1C(C)C2", "note": "(centres unmarked) [compound 12]", "values": [{"measurement": "percentage of positively stained cells (AnnexinV/7-AAD staining)", "setting": "HeLa [2]", "value": "2 (score 2 relates to more than 50% positivity)"}, {"measurement": "percentage of positively stained cells (AnnexinV/7-AAD staining)", "setting": "Jurkat [3]", "value": "2 (score 2 relates to more than 50% positivity)"}, {"measurement": "percentage of positively stained cells (AnnexinV/7-AAD staining)", "setting": "Ramos [4]", "value": "2 (score 2 relates to more than 50% positivity)"}, {"measurement": "percentage of positively stained cells (AnnexinV/7-AAD staining)", "setting": "A20", "value": "2 (score 2 relates to more than 50% positivity)"}, {"measurement": "G2M (increase of the cell population arrested in G2M phase)", "setting": "HeLa [5]", "value": 0}, {"measurement": "subG1 (generation of a subG1 peak indicative for DNA fragmentation)", "setting": "HeLa [5]", "value": 0}, {"measurement": "G2M (increase of the cell population arrested in G2M phase)", "setting": "Jurkat [6]", "value": 0}, {"measurement": "subG1 (generation of a subG1 peak indicative for DNA fragmentation)", "setting": "Jurkat [6]", "value": 0}]}, {"smiles": "CCC1Cc2cc(OC)c(OC)cc2-c2cc3nc4ccccc4nc3n21", "note": "(centres unmarked) [compound 13]", "values": [{"measurement": "percentage of positively stained cells (AnnexinV/7-AAD staining)", "setting": "HeLa [2]", "value": "1 (score 1 relates to more than 10% but less than 50%)"}, {"measurement": "percentage of positively stained cells (AnnexinV/7-AAD staining)", "setting": "Jurkat [3]", "value": "2 (score 2 relates to more than 50% positivity)"}, {"measurement": "percentage of positively stained cells (AnnexinV/7-AAD staining)", "setting": "Ramos [4]", "value": "2 (score 2 relates to more than 50% positivity)"}, {"measurement": "percentage of positively stained cells (AnnexinV/7-AAD staining)", "setting": "A20", "value": "2 (score 2 relates to more than 50% positivity)"}, {"measurement": "G2M (increase of the cell population arrested in G2M phase)", "setting": "HeLa [5]", "value": 0}, {"measurement": "subG1 (generation of a subG1 peak indicative for DNA fragmentation)", "setting": "HeLa [5]", "value": 0}, {"measurement": "G2M (increase of the cell population arrested in G2M phase)", "setting": "Jurkat [6]", "value": 0}, {"measurement": "subG1 (generation of a subG1 peak indicative for DNA fragmentation)", "setting": "Jurkat [6]", "value": 0}]}]}
